Test results published in patent US20080145316A1, “Skin coating with microbial indicator” (priority 2006, published 2008).

Assays:
S. aureus [1] = assay: Colour change of cured skin sealant film containing indicator dye on contact with S. aureus suspension; settings: 100 μL S. aureus 10^6 CFU/mL on cured InteguSeal film, dye 200-300 ppm
Protocol: Reichardt's dye (from Sigma-Aldrich Chemical Co. Inc., Milwaukee Wis.) was mixed into 2 grams of InteguSeal® skin sealant (Medlogic Global Ltd., Cornwall, UK) containing an extra 0.2 gram of tributyl o-acetylcitrate placticizer (from Sigma-Aldrich) to give a deep blue solution with 200 ppm concentration of the dye. A drop (25 mg) of the mixture was then placed onto a microscope glass slide (5 cm×7.5 cm) and spread out using a glass rod to give thin coating smear (3 cm×2 cm). After complete cure had occurred (5 minutes) the cured film was exposed to a suspension of S. aureus (gram positive bacteria) at 10^6 CFU/mL (colony forming units). 100 μL of this suspension was placed onto a spot on the cured film and the area observed. In less than 10 seconds the area in contact with the bacteria suspension decolorized, visually indicating the contamination. When a 100 μL sample of the control media broth or water alone was placed on the sealant no color discharge was observed.
A 2 gram blue-purple solution of 300 ppm Chrome Azurol S (from Sigma-Aldrich) in InteguSeal® skin sealant was prepared to give a 300 ppm concentration of the dye. A drop 25 mg of the mixture was placed onto a glass slide and spread using a glass rod to give a thin smear. The sealant was allowed to fully cure (5 minutes). After this time 100 μL suspension of S. aureus at 10^6 CFU/mL was placed on the cure sealant and then visually observed for a color change.
A 2 gram solution of 300 ppm Phenol Red (from Sigma-Aldrich) in InteguSeal® skin sealant was prepared by mixing the ingredients to give a pale pink-gray liquid. 25 mg of the mixture was then placed onto a glass slide and spread out using a glass rod to give a thin coating smear on the glass. After the mixture fully cured (5 minutes) 100 μL of suspension of S. aureus bacteria at 10^6 CFU/mL was placed onto the cured sealant and visually observed for any color change. […] No color change or development was observed when the color media or water was placed on the sealant film.
A 2 gram sample of 300 ppm Eriochrome Blue Black B (from Sigma-Aldrich) in InteguSeal® skin sealant was prepared by mixing the ingredients to give a gray-blue mixture. 25 mg of the mixture was placed on a glass slide and spread with a glass rod to give a thin smear. The film was allowed to fully cure (5 minutes) and then 100 μL of S. aureus suspension at 10^6 CFU/mL was applied to the cured film and observed for a color change. […] No color change was observed when control media or water was applied to the film.

A. niger = assay: Colour change of cured skin sealant film containing indicator dye on contact with A. niger suspension; settings: 100 μL A. niger (mold) 10^5 CFU/mL on cured InteguSeal film, dye 200 ppm
Protocol: (§1) Reichardt's dye (from Sigma-Aldrich) was mixed into 2 grams of InteguSeal® skin sealant containing an extra 0.2 gram of tributyl o-acetylcitrate placticizer (from Sigma-Aldrich) to give a deep blue solution with 200 ppm concentration of the dye. A drop (25 mg) of the mixture was then placed onto a microscope glass slide (5 cm×7.5 cm) and spread out using a glass rod to give thin coating smear (3 cm×2 cm). After complete cure had occurred (5 minutes) the cured film was exposed to a suspension of E. coli (gram negative bacteria) at 10^5 CFU/mL (colony forming units). 100 μL of this suspension was placed onto a spot on the cured film and the area observed. In less than 10 seconds the area in contact with the bacteria suspension decolorized, visually indicating the contamination. When a 100 μL sample of the control media broth or water alone was placed on the sealant no color discharge was observed. On a separate untouched part of the cured film was placed 100 μL suspension of A. niger (mold) at 10^5 CFU/mL and the area again observed. In less than 10 seconds the Reichardt's dye had decolorized where the mold suspension was in contact with the film.

E. coli = assay: Colour change of cured film containing indicator dye on contact with E. coli suspension; settings: for time to visible color change of film / visually observed color change: 100 μL E. coli 10^5 CFU/mL on cured InteguSeal film, dye 200-300 ppm
Protocol: A 2 gram solution of 300 ppm Phenol Red (from Sigma-Aldrich) in InteguSeal® skin sealant was prepared by mixing the ingredients to give a pale pink-gray liquid. 25 mg of the mixture was then placed onto a glass slide and spread out using a glass rod to give a thin coating smear on the glass. After the mixture fully cured (5 minutes) 100 μL of suspension of E. coli bacteria at 10^5 CFU/mL was placed onto the cured sealant and visually observed for any color change. […] No color change or development was observed when the color media or water was placed on the sealant film.
as §1
Phenol red was dissolved in 3 other curable resins at a concentration of 300 ppm and tested with E. coli as described in example 5 above. The resins tried were: • Elmer's glue-all (Elmer's Products Inc., Columbus Ohio) • Contact cement (DAP Weldwood Inc., Dayton, Ohio) • Gelatin USP (unflavored. The Kroger Co., Cincinnati, Ohio) 100 μL suspension of E. coli was then placed on the cured film and visually observed. In all three resins the area in direct contact with the bacteria suspension turned red.

S. aureus [2] = assay: Color change measurement with spectrometer (Minolta cm-2600d), film area before and after exposure to microbes; settings: CIELAB, cured InteguSeal film before vs after exposure to microbes
Description: The color change inherent in the skin coating with indicator may be considered as a visual indicator with the user visually observing a color change as a signal that infection or microbial contamination is present, or the color change could also be measured electronically. Such measurements could be conducted using an optical device or other spectroscopic methods known to those skilled in the art to measure changes in color such as spectrophotometers and spectrodenitometers. The instruments measure color space (as described in “Pocket guide to digital printing” (1997) by Frank Cost, Delmar Publishers Inc., at page 144), the most widely used color space is CIELAB. This defines three variables, L*, a*, and b*, that have the following meaning:
Because CIELAB color space is somewhat uniform, a single number can be calculated that represents the difference between two colors as perceived by the human being. This difference is termed ΔE and is calculated by taking the square root of the sum of the squares of the three differences (ΔL*, Δa*, and Δb*) between the two colors (i.e. starting color and after color change).
Although in each of the examples described above the color change when in contact with microbes was clearly visible it would also be possible to measure this color change with an optical color change meter or sensor. This was conduced on Examples 1, 2, and 3 by illustration. The color change was measured using a spectrometer (Minolta cm-2600d. Minolta Co., Japan) and the reading obtained by measuring the film area before and after exposure to microbes. The reading was recorded in units of ΔE.

O=S(=O)([O-])c1cc(O)c(/N=N/c2ccc3ccccc3c2O)c2ccccc12.[Na+] [Eriochrome Blue Black B]
time to visible color change of film (S. aureus [1]): less than 5 seconds
visually observed color change (S. aureus [1]): film color was discharged to leave a colorless spot

[O-]c1c(-c2ccccc2)cc(-[n+]2c(-c3ccccc3)cc(-c3ccccc3)cc2-c2ccccc2)cc1-c1ccccc1 [Reichardt's dye, 4-(2,4,6-triphenylpyridinium-1-yl)-2,6-diphenylphenolate]
time to visible color change of film (A. niger): less than 10 seconds
visually observed color change (A. niger): decolorized
time to visible color change of film (E. coli): less than 10 seconds
visually observed color change (E. coli): decolorized
color change ΔE (S. aureus [2]): 32 ΔE
time to visible color change of film (S. aureus [1]): less than 10 seconds
visually observed color change (S. aureus [1]): decolorized

CC1=C/C(=C(\c2cc(C)c(O)c(C(=O)[O-])c2)c2c(Cl)ccc(S(=O)(=O)[O-])c2Cl)C=C(C(=O)[O-])C1=O.[Na+].[Na+].[Na+] [Chrome Azurol S]
color change ΔE (S. aureus [2]): 27 ΔE
time to visible color change of film (S. aureus [1]): ≤ 5 s
visually observed color change (S. aureus [1]): red color developed

O=S1(=O)OC(c2ccc(O)cc2)(c2ccc(O)cc2)c2ccccc21 [Phenol Red, phenolsulfonephthalein]
time to visible color change of film (E. coli): less than 5 seconds
visually observed color change (E. coli): bright red color developed
visually observed color change in other curable resins (E. coli; 300 ppm dye in Elmer's glue-all, Contact cement, Gelatin USP, 100 μL E. coli suspension on cured film, all three resins): turned red
color change ΔE (S. aureus [2]): 35 ΔE
time to visible color change of film (S. aureus [1]): less than 5 seconds
visually observed color change (S. aureus [1]): bright red color developed
